Tests used:
[1] = Structural integrity of released Avastin (far-UV and fluorescence emission scans); assay type: physicochemical; settings: after release from the nanogels, versus native and denatured controls
Description: Nanogels containing 0, 2 or 5 mol % acrylic acid (AA) loaded with 12.5 or 37.5 wt % Avastin were dispersed in 1 mL PBS (pH 7.4) inside a release device (Float-A-Lyzer® G2, Spectrum Laboratories Inc.) with MWCO 300 kDa at 20 mg/mL. The release device was immersed in 20 mL PBS (pH 7.4) in a 50 mL conical centrifuge tube, and the release was carried out in an incubator shaker at 70 rpm and 37° C. for 100 days. At selected times, the release device was transferred to a new PBS (pH 7.4) release media maintained at 37° C. The amount of Avastin released at each time point was measured using a BCA total protein assay kit (n=4). The fluorescence spectra of released Avastin at late time points were compared to native Avastin® to evaluate the structural integrity of the therapeutic antibody during release.

[2] = tested on: VEGF expression of hfRPE cells; assay: VEGF ELISA on hfRPE cells with and without UV treatment; assay type: cell-based, human; settings: Avastin 0.25 mg/mL, nanogels 2 mg/mL, 24 hours
Description: To test the ability of Avastin®-loaded nanogels to affect VEGF expression, HfRPE cells were seeded in 96-well plates at a density of 100,000 cells/cm^2. After one day incubation, cell media for all groups was changed to PBS (pH 7.4). Half of all cells were exposed to UV light (1 J/cm) for one hour, and the other half were placed back into the cell incubator. After the 1-hour exposure, PBS (pH 7.4) for all wells were replaced with serum free media (DMEM+pen/strep), then Avastin® at concentration 0.25 mg/mL, and nanogels containing 2 mol % AA with and without 12.5 wt % Avastin® were added into the wells at a concentration of 2 mg/mL. Cells with and without UV treatment were used as controls.
After 24 hours, a VEGF ELISA assay was conducted on all experimental groups.

For Bevacizumab [Avastin], the “secondary and tertiary protein structures” value [1] was “intact”, the “VEGF expression of hfRPE” value ([2]; UV-treated cells) was “reduces the VEGF expression to the level of the cells without UV treatment” and the “VEGF expression of hfRPE” value ([2]; cells without UV treatment) was “do not change VEGF expression”.
